Read-outs that look alike come from different tables or passages of the source.
Legend:
[1] = target: CNS cholinergic receptor; conditions: read-out: CNS Cholinergic Receptor Binding Assays K1 QNB
[2] = tested on: oxotremorine-induced body tremor; assay: Oxotremorine antagonist assay (body tremor); type: in vivo, mice
Protocol: Oxotremorine antagonist assays were performed on groups of six mice weighing 18-22 g. Each was dosed intraperitoneally with the test compound prepared in 0.25% methylcellulose and were placed in individual cages. Twenty minutes later the mice were injected subcutaneously with 0.5 mg/kg of oxotremorine dissolved in saline. Ten minutes later the mice were scored for body tremor. Doses of the compound under study began at 100 mg/kg and were decreased at a 0.5 log interval until no responders were obtained.

[3] = tested on: HCl-induced writhing; assay: HCl writhing protection (analgesic activity); type: in vivo, CF1 mice; conditions: Mus musculus, sc; ED50; s.c. in CF1 mice, 30 min before i.p. 0.15% HCl; read-out: CNS Id (ED50 mg/kg) HCl Writh. Protect
Protocol: For determination of analgesic activity, the test compound was injected subcutaneously into a group of four CF1 mice. Thirty minutes later the mice were injected i.p. with 0.15% HCl, 10 ml./kg. Mice were then placed in plastic boxes and observed for fifteen minutes to record the number of animals failing to writhe.

[4] = target: CNS cholinergic receptor; assay: CNS cholinergic receptor binding, oxotremorine M ligand; conditions: tritiated oxotremorine M; read-out: CNS Cholinergic Receptor Binding Assays K1 Oxotremorine
[5] = tritiated quinuclidine benzylate (QNB)
[6] = Mus musculus, ip; read-out: Oxot. Antagonist Tremor (ED50)
[7] = Mus musculus, ip, read-out: Oxot. Antagonist Tremor (ED50)

SMILES | Ki [1, 5] | ED50 [2, 6] | ED50 [3] | Ki [4] | ED50 [2, 7] | Ki [1]
CN1CCN(CC#CCN2CCCC2)C1=O [Compound 1, 1-Methyl-3-[4-(1-pyrrolidinyl)-2-butynyl]-2-imidazolidinone] | 180 nM | > 3 mg/kg | 0.2 mg/kg | 2.7 nM |  | 
CCN(CC)CC#CCn1ccn(C)c1=O [Compound 4, 1-[4-(Diethylamino)-2-butynyl]-1,3-dihydro-3-methyl-2H-imidazol-2-one] | > 10000 nM | > 100 mg/kg |  | 563 nM |  | 
Cn1ccn(CC#CCn2ccnc2)c1=O [Compound 6, 1,3-Dihydro-1-[4-(1H-imidazol-1-yl)-2-butynyl]-3-methyl-2H-imidazol-2-one] | > 10000 nM | > 100 mg/kg |  | 35 nM |  | 
Cc1cncn1CC#CCn1ccn(C)c1=O [Compound 7, 1,3-Dihydro-1-methyl-3-[4-(5-methyl-1H-imidazol-1-yl)-2-butynyl]-2H-imidazol-2-one] | 614 nM | > 100 mg/kg |  | 39 nM |  | 
CC(C)(C)OC(=O)N1CCN(CC#CCN2CCCC2)C1=O [Compound 8, t-Butyl 2-oxo-3-[4-(1-pyrrolidinyl)-2-butynyl]-1-imidazolidinecarboxylate] | 2200 nM | > 100 mg/kg | 25 mg/kg | 130 nM |  | 
O=C1NCCN1CC#CCN1CCCC1 [Compound 9, 1-[4-(1-Pyrrolidinyl)-2-butynyl]-2-imidazolidinone] | 800 nM | > 3 mg/kg | 2.2 mg/kg | 13 nM |  | 
CN(C)CC#CCN1CCN(C)C1=O [Compound 10, 1-[4-(1-Dimethylamino)-2-butynyl]-3-methyl-2-imidazolidinone] | 180 nM | > 10 mg/kg | > 13 mg/kg | 4.5 nM |  | 
CN(C)CC#CCN1CCN(C(=O)OC(C)(C)C)C1=O [Compound 11, t-Butyl 3-[4-(dimethylamino)-2-butynyl]-2-oxo-1-imidazolidinecarboxylate] | 4700 nM | > 100 mg/kg | > 50 mg/kg | 160 nM |  | 
CC1(C)CN(CC#CCN2CCCC2)C(=O)N1 [Compound 12, 4,4-Dimethyl-1-[4-(1-pyrrolidinyl)-2-butynyl]-2-imidazolidinone] |  | > 100 mg/kg | > 50 mg/kg | 820 nM |  | 
CN1C(=O)N(CC#CCN2CCCC2)CC1(C)C [Compound 13, 3,4,4-Trimethyl-1-[4-(1-pyrrolidinyl)-2-butynyl]-2-imidazolidinone] |  | > 100 mg/kg | 12.5 mg/kg | > 10000 nM |  | 
C#CCN1CCN(CC#CCN2CCCC2)C1=O [Compound 14, 1-(2-Propynyl)-3-[4-(1-pyrrolidinyl)-2-butynyl]-2-imidazolidinone] | 2300 nM | > 30 mg/kg | > 25 mg/kg | 200 nM |  | 
CC1CN(CC#CCN2CCCC2)C(=O)N1 (stereo not shown) [Compound 15, 4-Methyl-1-[4-(1-pyrrolidinyl)-2-butynyl]-2-imidazolidinone] | 1000 nM | > 10 mg/kg | > 13 mg/kg | 140 nM |  | 
CC1(C)CNC(=O)N1CC#CCN1CCCC1 [Compound 16, 5,5-Dimethyl-1-[4-(1-pyrrolidinyl)-2-butynyl]-2-imidazolidinone] | 1000 nM | > 100 mg/kg | 25 mg/kg | 290 nM |  | 
CC(C#CCN1CCCC1)N1CCN(C)C1=O (stereo not shown) [Compound 22, 1-Methyl-3-[1-methyl-4-(1-pyrrolidinyl)-2-butynyl]-2-imidazolidinone] |  |  |  |  | 37 mg/kg | 
CCN(CC)CC#CCN1CCNC1=O [Compound 23, 1-[4-(Diethylamino)-2-butynyl]-2-imidazolidinone] | > 10000 nM | > 100 mg/kg |  | 425 nM |  | 
CCN(CC)CC#CCN1CCN(C)C1=O [Compound 24, 1-[4-(Diethylamino)-2-butynyl]-3-methyl-2-imidazolidinone] | > 10000 nM | > 100 mg/kg |  | 132 nM |  | 
O=C1NCCN1CC#CCn1ccnc1 [Compound 25, 1-[4-(1H-Imidazol-1-yl)-2-butynyl]-2-imidazolidinone] | > 10000 nM | > 100 mg/kg |  | 62 nM |  | 
CC(=O)N1CCN(CC#CCn2cncc2C)C1=O [Compound 26, 1-Acetyl-3-[4-(5-methyl-1H-imidazol-1-yl)-2-butynyl]-2-imidazolidinone] | > 10000 nM | 45 mg/kg |  | 147 nM |  | 
Cc1cncn1CC#CCN1CCNC1=O [Compound 27, 1-[4-(5-Methyl-1H-imidazol-1-yl)-2-butynyl]-2-imidazolidinone] | > 10000 nM | > 100 mg/kg |  | 138 nM |  | 
CN1CCN(CC#CCn2ccnc2)C1=O [Compound 28, 1-[4-(1H-Imidazol-1-yl)-2-butynyl]-3-methyl-2-imidazolidinone] |  |  |  | 2 nM | > 100 mg/kg | 1870 nM

SMILES | Ki [1, 5] | ED50 [2, 6] | ED50 [3] | Ki [4] | ED50 [2, 7] | Ki [1]
Cc1cncn1CC#CCN1CCN(C)C1=O [Compound 29, 1-Methyl-3-[4-(5-methyl-1H-imidazol-1-yl)-2-butynyl]-2-imidazolidinone] | 381 nM | > 100 mg/kg |  | 9 nM |  | 
CCN1CCN(CC#CCN2CCCC2)C1=O [Compound 30, 1-Ethyl-3-[4-(1-pyrrolidinyl)-2-butynyl]-2-imidazolidinone] | > 10000 nM | > 30 mg/kg |  | 697 nM |  | 
CC(C#CCN1CCCC1)N1CCNC1=O (stereo not shown) [Compound 31, 1-[1-Methyl-4-(1-pyrrolidinyl)-2-butynyl]-2-imidazolidinone] | 135 nM | > 30 mg/kg |  | 15 nM |  | 
CC(C#CCN(C)C)N1CCN(C)C1=O (stereo not shown) [Compound 32, 1-[4-(Dimethylamino)-1-methyl-2-butynyl]-3-methyl-2-imidazolidinone] | > 10000 nM | > 100 mg/kg |  | 33 nM |  | 
CN(C)CC#CCN1CCNC1=O [Compound 33, 1-[4-(Dimethylamino)-2-butynyl]-2-imidazolidinone] | > 10000 nM | > 100 mg/kg |  | 43 nM |  | 
CCN(CC)CC#CC(C)N1CCN(C)C1=O (stereo not shown) [Compound 34, 1-[4-(Diethylamino)-1-methyl-2-butynyl]-3-methyl-2-imidazolidinone] | 1980 nM | > 100 mg/kg |  | 165 nM |  | 
CC(C#CCn1ccnc1)N1CCN(C)C1=O (stereo not shown) [Compound 35, 3-[4-(1H-Imidazol-1-yl)-1-methyl-2-butynyl]-1-methyl-2-imidazolidinone] | 4010 nM | > 100 mg/kg |  | 120 nM |  | 
CN(C)CC#CCn1ccn(C)c1=O [Compound 37, 1,3-Dihydro-1-[4-(dimethylamino)-2-butynyl]-3-methyl-2H-imidazol-2-one] | > 10000 nM | > 100 mg/kg |  | 37 nM |  | 
O=c1[nH]ccn1CC#CCN1CCCC1 [Compound 38, 1,3-Dihydro-1-[4-(1-pyrrolidinyl)-2-butynyl]-2H-imidazol-2-one] | > 10000 nM | > 2 mg/kg |  | 33 nM |  | 
CC(C#CCN1CCCC1)n1ccn(C)c1=O (stereo not shown) [Compound 39, 1,3-Dihydro-1-methyl-3-[1-methyl-4-(1-pyrrolidinyl)-2-butynyl]-2H-imidazol-2-one] | 88 nM | > 30 mg/kg |  | 9 nM |  | 
CC(C#CCN(C)C)n1ccn(C)c1=O (stereo not shown) [Compound 40, 1,3-Dihydro-1-methyl-3-[4-(dimethylamino)-1-methyl-2-butynyl]-2H-imidazol-2-one] | > 10000 nM | > 100 mg/kg |  | 136 nM |  | 
CN(C)CC#CCN1C(=O)CN(C)C1=O [Compound 41, 3-[4-(Dimethylamino)-2-butynyl]-1-methyl-2,4-imidazolidinedione] | > 10000 nM |  |  | 86 nM |  | 
CN1CCCN(CC#CCN2CCCC2)C1=O [Compound 42, Tetrahydro-1-methyl-3-[4-(1-pyrrolidinyl)-2-butynyl]-2(1H)-pyrimidinone] | 1580 nM | > 30 mg/kg |  | 229 nM |  | 
CN1C(=O)CN(CC#CCN2CCCC2)C1=O [Compound 43, 3-Methyl-1-[4-(1-pyrrolidinyl)-2-butynyl]-2,4-imidazolidinedione] | > 10000 nM | > 100 mg/kg |  | 364 nM |  | 
CN1CC(=O)N(CC#CCN2CCCC2)C1=O [Compound 44, 1-Methyl-3-[4-(1-pyrrolidinyl)-2-butynyl]-2,4-imidazolidinedione] | 8710 nM | > 30 mg/kg |  | 20 nM |  | 
C(#C[C@H]1CCCN1)CN1CCCC1 [Compound 50A, (R)-1-[3-(2-pyrrolidinyl)-2-propynyl]pyrrolidine] | 4800 nM | > 100 mg/kg |  | 260 nM |  | 
C(#C[C@@H]1CCCN1)CN1CCCC1 [Compound 50B, (S)-1-[3-(2-pyrrolidinyl)-2-propynyl]pyrrolidine] | > 10000 nM |  |  | 1300 nM |  | 
CC(=O)N1CCC[C@@H]1C#CCN1CCCC1 [Compound 51A, (R)-1-Acetyl-2-[3-(1-pyrrolidinyl)-1-propynyl]pyrrolidine] | 120 nM | 3 mg/kg | > 50 mg/kg |  |  | 
CC(=O)N1CCC[C@H]1C#CCN1CCCC1 [Compound 51B, (S)-1-Acetyl-2-[3-(1-pyrrolidinyl)-1-propynyl]pyrrolidine] | 2300 nM | > 30 mg/kg |  | 370 nM |  | 

— patent US5137905A, “Heterocyclic acetylenic amines having central nervous system activity” (The Upjohn Company, priority 1991, dated 1992)
